{"source": "patent US20230172928A1", "about": "(priority 2020, published 2023)", "key": {"PC14 cells [1]": {"test_system": "PC14 cells", "assay": "Immunoblot of PC14 cell lysates (p-ERK, c-PARP, BIM)", "assay_type": "cell-based, human", "settings": "nazartinib 0.1 or 0.3 μM, 3 μM TNO155 or combination, 4 h or 24 h", "protocol": "For immunoblotting: Cells (200,000 to 750,000) in 2 mL growth media were seeded in 6-well plates (Corning, #3506). After 24 hours, cells were treated with compounds or growth factors at the indicated concentrations and duration. Cells were lysed on ice in RIPA buffer (Boston Bioproduct #BP-115) supplemented with 1 mM EDTA and Halt Protease and Phosphatase Inhibitor Cocktail (Thermo Fisher Scientific #1861281). Lysates were centrifuged at 14,000 rpm at 4° C. for 15 minutes and protein concentrations were determined using BCA protein assay (Thermo Fisher Scientific). […] The bound primary antibodies were visualized using Goat anti-rabbit IgG secondary antibody conjugated with Alexa Fluor 700 and goat anti-mouse IgG secondary antibody conjugated with IRDye 800 CW and scanning with an Odyssey Infrared Imager System (Li-Cor). […]"}, "[2]": {"assay": "Adverse events of decreased left ventricular ejection fraction", "design": "species or system human", "settings": "in vivo", "source_text": "Patients with EGFR-mutant NSCLC have a high disease control rate with EGFR inhibitors (e.g., erlotinib, gefitinib, osimertinib), but resistance invariably develops. Resistance mechanisms are heterogeneous, but commonly result in restoration of mutant EGFR signaling and/or amplification or overexpression of RTKs other than EGFR (such as MET) or of their ligands."}, "CYP3A4": {"biological_target": "CYP3A4 (Homo sapiens, UniProt P08684)", "sequence (P08684 whole entry)": "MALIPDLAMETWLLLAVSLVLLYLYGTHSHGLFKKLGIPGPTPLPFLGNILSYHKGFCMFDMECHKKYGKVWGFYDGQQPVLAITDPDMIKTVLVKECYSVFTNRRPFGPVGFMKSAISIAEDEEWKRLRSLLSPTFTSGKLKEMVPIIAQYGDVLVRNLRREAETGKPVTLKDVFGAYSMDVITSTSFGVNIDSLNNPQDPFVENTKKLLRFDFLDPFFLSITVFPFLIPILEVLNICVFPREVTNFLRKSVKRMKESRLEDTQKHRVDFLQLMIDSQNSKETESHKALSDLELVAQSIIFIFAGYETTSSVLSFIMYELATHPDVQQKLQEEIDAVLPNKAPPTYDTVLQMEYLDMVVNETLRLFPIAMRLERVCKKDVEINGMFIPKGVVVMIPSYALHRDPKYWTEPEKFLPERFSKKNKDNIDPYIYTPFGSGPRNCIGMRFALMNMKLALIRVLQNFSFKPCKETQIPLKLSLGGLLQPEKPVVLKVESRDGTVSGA", "assay": "CYP3A4 interaction / metabolism"}, "HCC827 cells": {"test_system": "HCC827 cells", "assay": "Cell proliferation / combination dose matrix assay (CellTiter-Glo)", "assay_type": "cell-based", "settings": "Homo sapiens, HCC827, HCC827, EGFR ex19del"}, "NCI-H3255 cells": {"test_system": "NCI-H3255 cells", "assay": "Cell proliferation / combination dose matrix assay (CellTiter-Glo)", "assay_type": "cell-based", "settings": "Homo sapiens, NCI-H3255, NCI-H3255, EGFR L858R", "protocol": "(§1) Human cancer cell lines originated from the CCLE (Cancer Cell Line Encyclopedia) authenticated by single-nucleotide polymorphism analysis and tested for mycoplasma infection using a PCR-based detection technology (IDEXX BioAnalytics) when CCLE was established in 2012. All cell lines used were directly thawed from the CCLE collection stock. All cell lines were cultured in RPMI Medium (ThermoFisher Scientific) except HT-29 (McCoy's 5A), RKO (MEMα), MDST8 (DMEM), A-427 (MEMα) and MIA PaCA-2 (DMEM), supplemented with 10% FBS (VWR). Cell lines were used within 15 passages of thawing and continuously cultured for less than 6 months.\n(§2) For combination dose matrix assay, 2000 to 3000 cells were seeded in 96-well plates in 80 μL media per well. On the second day, serial dilutions of the two combination agents were subsequently added, each in 20 μL media at 6× of final indicated concentrations. 3 days later, cell viability was measured by the CellTiter-Glo Assay (Promega #G7573). The mean and standard deviation (n=3) of percentages of inhibition (relative to the DMSO-treated control) of compound-treated cells and synergy scores between the two compounds were determined. Synergy scores greater than 2 are considered to have synergistic rather than additive effects.\n(§3) Statistical analyses were performed and curve fit and IC50 values were generated using GraphPad Prism 8 software. Statistical significance was determined using unpaired, paired student t test, or Mann-Whitney test. Significance was set at p=0.05."}, "HCC2279 cells": {"test_system": "HCC2279 cells", "assay": "Cell proliferation / combination dose matrix assay (CellTiter-Glo)", "assay_type": "cell-based", "settings": "Homo sapiens; HCC2279, EGFR ex19del", "protocol": "as §1, §2, §3"}, "HCC4006 cells": {"test_system": "HCC4006 cells", "assay": "Cell proliferation / combination dose matrix assay (CellTiter-Glo)", "assay_type": "cell-based", "settings": "Homo sapiens; HCC4006, EGFR ex19del", "protocol": "as §1, §2, §3"}, "NCI-H1650 cells": {"test_system": "NCI-H1650 cells", "assay": "Cell proliferation / combination dose matrix assay (CellTiter-Glo)", "assay_type": "cell-based", "settings": "Homo sapiens; NCI-H1650, EGFR ex19del", "protocol": "as §1, §2, §3"}, "NCI-H1975 cells": {"test_system": "NCI-H1975 cells", "assay": "Cell proliferation / combination dose matrix assay (CellTiter-Glo)", "assay_type": "cell-based, human", "settings": "for IC50: Homo sapiens, NCI-H1975, EGFR L858R/T790M", "protocol": "(§4) Human cancer cell lines originated from the CCLE (Cancer Cell Line Encyclopedia) authenticated by single-nucleotide polymorphism analysis and tested for mycoplasma infection using a PCR-based detection technology (IDEXX BioAnalytics) when CCLE was established in 2012. All cell lines used were directly thawed from the CCLE collection stock. All cell lines were cultured in RPMI Medium (ThermoFisher Scientific) except HT-29 (McCoy's 5A), RKO (MEMα), MDST8 (DMEM), A-427 (MEMα) and MIA PaCA-2 (DMEM), supplemented with 10% FBS (VWR). Cell lines were used within 15 passages of thawing and continuously cultured for less than 6 months. For combination dose matrix assay, 2000 to 3000 cells were seeded in 96-well plates in 80 μL media per well. On the second day, serial dilutions of the two combination agents were subsequently added, each in 20 μL media at 6× of final indicated concentrations. 3 days later, cell viability was measured by the CellTiter-Glo Assay (Promega #G7573). The mean and standard deviation (n=3) of percentages of inhibition (relative to the DMSO-treated control) of compound-treated cells and synergy scores between the two compounds were determined. […] Statistical analyses were performed and curve fit and IC50 values were generated using GraphPad Prism 8 software. Statistical significance was determined using unpaired, paired student t test, or Mann-Whitney test. Significance was set at p=0.05. […] After 3 days (PC14) or 6 days (NCI-H1975), cell proliferation was measured using the Cell Titer-Glo® assay and luminescent signals of each dose combination were normalized to that of the DMSO (vehicle control) group."}, "PC14 cells [3]": {"test_system": "PC14 cells", "assay": "Cell proliferation / combination dose matrix assay (CellTiter-Glo)", "assay_type": "cell-based, human", "settings": "for IC50: Homo sapiens, PC-14, PC14, EGFR ex19del", "protocol": "as §4"}, "[4]": {"test_system": "patients with EGFRmutated NSCLC", "assay": "First-in-human study of nazartinib (CEGF816X2101)", "assay_type": "in vivo", "settings": "75 mg to 350 mg QD", "protocol": "Nazartinib has been studied in 7 clinical trials.\n(§5) The starting dose of nazartinib in this study is 150 mg QD, dosed continuously. In CEGF816X2101, the first-in-human study of nazartinib, doses of nazartinib from 75 mg daily to 350 mg daily were investigated. […] Thus the starting dose of 20 mg QD, 2 weeks on/1 week off provides an adequate tolerability margin for combination with nazartinib 150 mg QD."}, "PC9 cells": {"test_system": "PC9 cells", "assay": "Cell proliferation / combination dose matrix assay (CellTiter-Glo)", "assay_type": "cell-based, human", "protocol": "as §1, §2, §3"}, "[5]": {"test_system": "EGFR L858R model 29665HXXTM", "settings": "osimertinib 10 mpk daily, TNO155 10 mpk BID"}, "[6]": {"test_system": "EGFR L858R model 29667HXXTM", "settings": "osimertinib 10 mpk daily, TNO155 10 mpk BID"}, "[7]": {"test_system": "EGFR L858R model 29666HXXTM", "settings": "osimertinib 10 mpk daily, TNO155 10 mpk BID"}, "[8]": {"settings": "Tagrisso prescribing information; cited from earlier work"}, "[9]": {"test_system": "EGFR-dependent DETROIT-562 cancer cell line", "assay": "In vivo SHP2 inhibition and efficacy, DETROIT-562 model", "settings": "orally-administered, 20 mg/kg"}, "[10]": {"test_system": "DETROIT-562 (pharyngeal squamous cell carcinoma) cells", "assay": "in vitro antiproliferation", "assay_type": "cell-based", "settings": "Homo sapiens"}, "[11]": {"assay": "TNO155 regimens tested in patients", "assay_type": "in vivo, human", "settings": "60 mg QD 2 weeks on/1 week off and 40 mg QD 3 weeks on/1 week off", "protocol": "as §5"}, "[12]": {"test_system": "KYSE-520 (esophageal squamous cell carcinoma) cells", "assay": "in vitro antiproliferation", "assay_type": "cell-based", "settings": "Homo sapiens"}, "[13]": {"test_system": "pERK in KYSE-520 (esophageal squamous cell carcinoma) cells", "assay": "in vitro pERK inhibition", "assay_type": "cell-based", "settings": "Homo sapiens"}, "[14]": {"test_system": "pERK in DETROIT-562 (pharyngeal squamous cell carcinoma) cells", "assay": "in vitro pERK inhibition", "assay_type": "cell-based", "settings": "Homo sapiens"}, "[15]": {"settings": "mice"}, "[16]": {"settings": "Homo sapiens, PC-9, PC9, EGFR ex19del"}}, "note": "“And” between values parts separate entries of the source, which are not always exact repeats. Equal values may be shown once. Read-outs that look alike come from different tables or passages of the source.", "data": [{"smiles": "Cc1cc(C(=O)Nc2nc3cccc(Cl)c3n2[C@@H]2CCCCN(C(=O)/C=C/CN(C)C)C2)ccn1", "note": "[Nazartinib, (R,E)-N-(7-chloro-1-(1-(4-(dimethylamino)but-2-enoyl)azepan-3-yl)-1H-benzo[d]imidazol-2-yl)-2-methylisonicotinamide]", "values": [{"measurement": "p-ERK levels", "setting": "PC14 cells [1]", "result": "rebound of p-ERK levels was observed after 24 h"}, {"measurement": "adverse events of decreased left ventricular ejection fraction", "setting": "[2]", "result": "not associated with adverse events of decreased left ventricular ejection fraction"}, {"measurement": "metabolism", "setting": "CYP3A4", "result": "primarily metabolized by CYP3A4"}, {"measurement": "IC50", "setting": "HCC827 cells", "result": 0.04, "unit": "µM"}, {"measurement": "IC50", "setting": "NCI-H3255 cells", "result": 0.01, "unit": "µM"}, {"measurement": "IC50", "setting": "HCC2279 cells", "result": "> 3", "unit": "µM"}, {"measurement": "IC50", "setting": "HCC4006 cells", "result": 0.06, "unit": "µM"}, {"measurement": "IC50", "setting": "NCI-H1650 cells", "result": "> 3", "unit": "µM"}, {"measurement": "IC50", "setting": "NCI-H1975 cells", "result": 0.17, "unit": "µM"}, {"measurement": "IC50", "setting": "PC14 cells [3]", "result": 0.05, "unit": "µM"}, {"measurement": "anti-tumor efficacy", "setting": "[4]", "result": "anti-tumor efficacy was observed at all doses"}, {"measurement": "maximum tolerated dose", "setting": "[4]", "result": "not established"}, {"measurement": "IC50", "setting": "PC9 cells; [16]", "result": 0.01, "unit": "µM"}]}, {"smiles": "C=CC(=O)Nc1cc(Nc2nccc(-c3cn(C)c4ccccc34)n2)c(OC)cc1N(C)CCN(C)C", "note": "[osimertinib, reference compound]", "values": [{"measurement": "anti-tumor activity (tumor volume)", "setting": "[5]", "result": "strong"}, {"measurement": "anti-tumor activity (tumor volume)", "setting": "[6]", "result": "modest"}, {"measurement": "anti-tumor activity (tumor volume)", "setting": "[7]", "result": "only transient efficacy"}, {"measurement": "adverse events of decreased left ventricular ejection fraction", "setting": "[8]", "result": "Such events have been described"}]}, {"smiles": "C[C@@H]1OCC2(CCN(c3cnc(Sc4ccnc(N)c4Cl)c(N)n3)CC2)[C@@H]1N", "note": "[TNO155, (3S,4S)-8-(6-amino-5-((2-amino-3-chloropyridin-4-yl)thio)pyrazin-2-yl)-3-methyl-2-oxa-8-azaspiro[4.5]decan-4-amine]", "values": [{"measurement": "p-ERK levels", "setting": "PC14 cells [1]", "result": "effectively reduced p-ERK levels at 4 h but also suffered a rebound at 24 h"}, {"measurement": "decrease in DUSP6 mRNA transcript", "setting": "[9]", "result": "approximately 95%"}, {"measurement": "regression", "setting": "[9]; twice-daily schedule", "result": 47, "unit": "%"}, {"measurement": "IC50", "setting": "[10]", "result": 0.47, "unit": "µM"}, {"measurement": "tolerability", "setting": "[11]", "result": "tolerated"}, {"measurement": "IC50", "setting": "[12]", "result": 0.1, "unit": "µM"}, {"measurement": "CYP3A4 induction / inhibition", "setting": "CYP3A4; human", "result": "neither an inducer nor inhibitor of CYP3A4"}, {"measurement": "anti-tumor activity (tumor volume)", "setting": "[5]", "result": "minimal activity"}, {"measurement": "IC50", "setting": "[13]", "result": "8 nM and 0.0034 µg/mL"}, {"measurement": "IC50", "setting": "HCC2279 cells", "result": "> 10", "unit": "µM"}, {"measurement": "IC50", "setting": "HCC4006 cells", "result": "> 10", "unit": "µM"}, {"measurement": "IC50", "setting": "NCI-H1650 cells", "result": "> 10", "unit": "µM"}, {"measurement": "IC50", "setting": "NCI-H1975 cells", "result": "> 10", "unit": "µM"}, {"measurement": "single agent activity", "setting": "NCI-H1975 cells; NCI-H1975, low concentrations, e.g. 0.124 μM", "result": "lacks single agent activity"}, {"measurement": "IC50", "setting": "PC14 cells [3]", "result": 5.01, "unit": "µM"}, {"measurement": "single agent activity", "setting": "PC14 cells [3]; PC14, low concentrations, e.g. 0.124 μM", "result": "lacks single agent activity"}, {"measurement": "IC50", "setting": "[14]", "result": 0.035, "unit": "µM"}, {"measurement": "anti-tumor activity (tumor volume)", "setting": "[6]", "result": "minimal activity"}, {"measurement": "anti-tumor activity (tumor volume)", "setting": "[7]", "result": "effectively slowed down the tumor growth"}, {"measurement": "half-life", "setting": "[15]", "result": "short half-life"}, {"measurement": "maximum tolerated dose", "setting": "[15]; twice a day (BID)", "result": "20 mg per kilogram body weight (mpk)"}, {"measurement": "IC50", "setting": "PC9 cells; [16]", "result": "< 1.5", "unit": "µM"}, {"measurement": "IC50", "setting": "PC9 cells; PC9, EGFR ex19del", "result": 1.46, "unit": "µM"}]}]}
